Assay results taken from ChEMBL document CHEMBL3046424, “Growth inhibitory effects on fall armyworm Spodoptera frugiperda of some limonoids isolated from Cedrela spp. (Meliaceae)” (2000).
In brackets after ≈: the same amount, converted by molar mass.

Columns and labels:
Assay type in all cases: functional
Spodoptera frugiperda [1] = assay: Insecticidal activity against Spodoptera frugiperda (fall armyworm) assessed as mean weight of pupae at 5 ug/ml in artificial diet (reference value: 281.5 +/- 10.3 mg)
Spodoptera frugiperda [2] = assay: Insecticidal activity against Spodoptera frugiperda (fall armyworm) assessed as mean length at 5 ug/ml in artificial diet measured after 7 days (reference value: 28 +/- 4.1 mg)
Spodoptera frugiperda [3] = assay: Insecticidal activity against Spodoptera frugiperda (fall armyworm) assessed as mortality at 5 ug/ml in artificial diet measured after 7 days (reference value: 8.33%); settings: 168 h
Spodoptera frugiperda [4] = assay: Insecticidal activity against Spodoptera frugiperda (fall armyworm) assessed as mean time to pupation at 52 ug/ml in artificial diet (reference value: 22 days)
Spodoptera frugiperda [5] = assay: Insecticidal activity against Spodoptera frugiperda (fall armyworm) assessed as mean length at 25 ug/ml in artificial diet measured after 7 days (reference value: 28 +/- 4.1 mg)
Spodoptera frugiperda [6] = assay: Insecticidal activity against Spodoptera frugiperda (fall armyworm) assessed as mean weight of pupae at 25 ug/ml in artificial diet (reference value: 281.5 +/- 10.3 mg)
Spodoptera frugiperda [7] = assay: Insecticidal activity against Spodoptera frugiperda (fall armyworm) assessed as mean length at 70 ug/ml in artificial diet measured after 7 days (reference value: 0.95 +/- 0.2 cm)
Spodoptera frugiperda [8] = assay: Insecticidal activity against Spodoptera frugiperda (fall armyworm) assessed as mean pupation at 25 ug/ml in artificial diet (reference value: 87.5 %)
Spodoptera frugiperda [9] = assay: Insecticidal activity against Spodoptera frugiperda (fall armyworm) assessed as mean pupation at 5 ug/ml in artificial diet (reference value: 87.5 %)
Spodoptera frugiperda [10] = assay: Insecticidal activity against Spodoptera frugiperda (fall armyworm) assessed as mortality at 25 ug/ml in artificial diet measured after 7 days (reference value: 8.33%); settings: 168 h
Spodoptera frugiperda [11] = assay: Insecticidal activity against Spodoptera frugiperda (fall armyworm) assessed as mean weight gain at 25 ug/ml in artificial diet measured after 7 days (reference value: 469.5 +/- 6.59 mg)
Spodoptera frugiperda [12] = assay: Insecticidal activity against Spodoptera frugiperda (fall armyworm) assessed as mean time to pupation at 25 ug/ml in artificial diet (reference value: 22 days)
Spodoptera frugiperda [13] = assay: Insecticidal activity against Spodoptera frugiperda (fall armyworm) assessed as mean weight gain at 70 ug/ml in artificial diet measured after 7 days (reference value: 75.5 +/- 8.24 mg)
Spodoptera frugiperda [14] = assay: Insecticidal activity against Spodoptera frugiperda (fall armyworm) assessed as mean emergence at 5 ug/ml in artificial diet (reference value: 83.3 %)
Spodoptera frugiperda [15] = assay: Insecticidal activity against Spodoptera frugiperda (fall armyworm) assessed as mean length at 52 ug/ml in artificial diet measured after 7 days (reference value: 28 +/- 4.1 mg)
Spodoptera frugiperda [16] = assay: Insecticidal activity against Spodoptera frugiperda (fall armyworm) assessed as mean pupation at 52 ug/ml in artificial diet (reference value: 87.5 %)
Spodoptera frugiperda [17] = assay: Insecticidal activity against Spodoptera frugiperda (fall armyworm) assessed as mean emergence at 25 ug/ml in artificial diet (reference value: 83.3 %)
Spodoptera frugiperda [18] = assay: Insecticidal activity against Spodoptera frugiperda (fall armyworm) assessed as mean weight gain at 52 ug/ml in artificial diet measured after 7 days (reference value: 469.5 +/- 6.59 mg)
Spodoptera frugiperda [19] = assay: Insecticidal activity against Spodoptera frugiperda (fall armyworm) assessed as mortality at 70 ug/ml in artificial diet measured after 7 days (reference value: 8.33%); settings: 168 h
Spodoptera frugiperda [20] = assay: Insecticidal activity against Spodoptera frugiperda (fall armyworm) assessed as mean weight gain at 5 ug/ml in artificial diet measured after 7 days (reference value: 75.5 +/- 8.24 mg)
Spodoptera frugiperda [21] = assay: Insecticidal activity against Spodoptera frugiperda (fall armyworm) assessed as mean emergence days at 25 ug/ml in artificial diet (reference value: 33 days)
Spodoptera frugiperda [22] = assay: Insecticidal activity against Spodoptera frugiperda (fall armyworm) assessed as mean emergence at 52 ug/ml in artificial diet (reference value: 83.3 %)
Spodoptera frugiperda [23] = assay: Insecticidal activity against Spodoptera frugiperda (fall armyworm) assessed as mean weight gain at 52 ug/ml in artificial diet measured after 7 days (reference value: 75.5 +/- 8.24 mg)
Spodoptera frugiperda [24] = assay: Insecticidal activity against Spodoptera frugiperda (fall armyworm) assessed as mean length at 52 ug/ml in artificial diet measured after 7 days (reference value: 0.95 +/- 0.2 cm)
Spodoptera frugiperda [25] = assay: Insecticidal activity against Spodoptera frugiperda (fall armyworm) assessed as mean length at 25 ug/ml in artificial diet measured after 7 days (reference value: 0.95 +/- 0.2 cm)
Spodoptera frugiperda [26] = assay: Insecticidal activity against Spodoptera frugiperda (fall armyworm) assessed as mean weight gain at 5 ug/ml in artificial diet measured after 7 days (reference value: 469.5 +/- 6.59 mg)
Spodoptera frugiperda [27] = assay: Insecticidal activity against Spodoptera frugiperda (fall armyworm) assessed as mean emergence days at 52 ug/ml in artificial diet (reference value: 33 days)
Spodoptera frugiperda [28] = assay: Insecticidal activity against Spodoptera frugiperda (fall armyworm) assessed as mortality at 52 ug/ml in artificial diet measured after 7 days (reference value: 8.33%); settings: 168 h
Spodoptera frugiperda [29] = assay: Insecticidal activity against Spodoptera frugiperda (fall armyworm) assessed as mean weight gain at 25 ug/ml in artificial diet measured after 7 days (reference value: 75.5 +/- 8.24 mg)
Spodoptera frugiperda [30] = assay: Insecticidal activity against Spodoptera frugiperda (fall armyworm) assessed as mean length at 5 ug/ml in artificial diet measured after 7 days (reference value: 0.95 +/- 0.2 cm)
Spodoptera frugiperda [31] = assay: Insecticidal activity against Spodoptera frugiperda (fall armyworm) assessed as mean time to pupation at 5 ug/ml in artificial diet (reference value: 22 days)
Spodoptera frugiperda [32] = assay: Insecticidal activity against Spodoptera frugiperda (fall armyworm) assessed as mean weight of pupae at 52 ug/ml in artificial diet (reference value: 281.5 +/- 10.3 mg)
Spodoptera frugiperda [33] = assay: Insecticidal activity against Spodoptera frugiperda (fall armyworm) assessed as mean emergence days at 5 ug/ml in artificial diet (reference value: 33 days)
Spodoptera frugiperda [34] = assay: Insecticidal activity against Spodoptera frugiperda (fall armyworm) assessed as mortality measured after 7 days; settings: 168 h

Structure (SMILES) | Activity (Spodoptera frugiperda [1]) [mg] | Activity (Spodoptera frugiperda [2]) [mm] | mortality at 5 µg/mL (Spodoptera frugiperda [3]) [%] | Time (Spodoptera frugiperda [4]) [days] | Activity (Spodoptera frugiperda [5]) [mm] | Activity (Spodoptera frugiperda [6]) [mg] | Activity (Spodoptera frugiperda [8]) [%] | Activity (Spodoptera frugiperda [9]) [%] | mortality at 25 µg/mL (Spodoptera frugiperda [10]) [%] | Activity (Spodoptera frugiperda [11]) [mg] | Time (Spodoptera frugiperda [12]) [days] | Activity (Spodoptera frugiperda [14]) [%] | Activity (Spodoptera frugiperda [15]) [mm] | Activity (Spodoptera frugiperda [16]) [%] | Activity (Spodoptera frugiperda [17]) [%] | Activity (Spodoptera frugiperda [18]) [mg] | Activity (Spodoptera frugiperda [20]) [mg] | Time (Spodoptera frugiperda [21]) [days] | Activity (Spodoptera frugiperda [22]) [%] | Activity (Spodoptera frugiperda [23]) [mg] | also measured
CCC(=O)[C@@H]1C(=O)O[C@@]2(C=O)[C@H]1[C@](C)([C@@H](OC(C)=O)c1ccoc1)CC[C@@H]2[C@@]1(C)C(=O)C[C@@H]2O[C@@H](C(=O)OC)[C@H]1C2(C)C [CEDRELANOLIDE] | 221.9 | 8.7 | 15 | 22.5 | 6.7 | 191.8 | 66.7 | 79.2 | 21 | 41.6 | 21.5 | 79.2 | 5.3 | 62.5 | 62.5 | 40.1 | 27.85 | 33 | 50 | 15.4 | Activity (Spodoptera frugiperda [7]): 0.51 cm; Activity (Spodoptera frugiperda [13]): 9.1 mg; mortality at 70 µg/mL (Spodoptera frugiperda [19]): 38%; Activity (Spodoptera frugiperda [24]): 0.7 cm; Activity (Spodoptera frugiperda [25]): 0.95 cm; Activity (Spodoptera frugiperda [26]): 55.7 mg; Time (Spodoptera frugiperda [27]): 33 days; mortality at 52 µg/mL (Spodoptera frugiperda [28]): 28%; Activity (Spodoptera frugiperda [29]): 20.8 mg; Activity (Spodoptera frugiperda [30]): 1.2 cm; Time (Spodoptera frugiperda [31]): 22 days; Activity (Spodoptera frugiperda [32]): 123.9 mg; Time (Spodoptera frugiperda [33]): 33 days
CC(=O)O[C@@H]1C[C@H](O)[C@@]23CO[C@@H](O)[C@]1(C)[C@@H]2C[C@@H](O)[C@]1(C)[C@@H]3C(=O)[C@H](OC(C)=O)[C@@]2(C)[C@H](c3ccoc3)C[C@H]3O[C@]321 [TOOSENDANIN] | 95 | 7 | 40 | 24 | 6.1 | 45.1 | 4.17 | 17.9 | 70 | 17 | 24 | 16.7 | 2.8 | 4.17 | 4.17 | 11.2 | 5.1 | 36 | 0 | 1 | Activity (Spodoptera frugiperda [24]): 0.57 cm; LC50 (Spodoptera frugiperda [34]): 7 µg/mL (≈ 12.2 µM); Activity (Spodoptera frugiperda [25]): 0.77 cm; Activity (Spodoptera frugiperda [26]): 21.5 mg; mortality at 52 µg/mL (Spodoptera frugiperda [28]): 89%; Activity (Spodoptera frugiperda [29]): 2.3 mg; Activity (Spodoptera frugiperda [30]): 0.98 cm; Time (Spodoptera frugiperda [31]): 23.5 days; Activity (Spodoptera frugiperda [32]): 38 mg; Time (Spodoptera frugiperda [33]): 36 days
